From patent US20220280507A1, “USES OF 5-METHYLTETRAHYDROFOLATE AND ITS COMPOSITION” (Lianyungang Jinkang Hexin Pharmaceutical Co., Ltd., priority 2019, published 2022)
Like-named read-outs stand apart in the source and are kept apart here.

How the values were obtained:
[1] = system: TNF-α; assay: LPS-induced inflammatory response in astrocytes, TNF-α release (ELISA); type: cell-based, Kunming mice; details: culture supernatant, LPS 1 μg·ml-1 + substance 10 μg·ml-1, 24 h, n=6
Text: Experiment 9 Inhibition of 5-Methyltetrahydrofolate and Curcumin on LPS-Induced Inflammatory Response in Astrocytes
The cerebral cortex of Kunming mice at 1˜2 d was taken out under aseptic conditions, washed 3 times with cold PBS after removing residual meninges and blood vessels, prepared into single cell suspension by blowing, centrifuged, the supernatant was discarded, and the precipitant was resuspended in AST basic medium (high-sugar DMEM containing 10% FBS). The suspension was inoculated into a culture flask coated with poly-L-lysine (0.1 mg/ml), and cultured in a CO2 incubator. After 24 h, tissue debris and non-adherent cells were removed by replacing the medium. Afterwards, the medium was replaced every 3 days until the cells reached 80% confluence, then the flask was placed on a constant temperature rotary shaker, where the suspension was centrifuged at 180 r/min, 37° C. for 18 h to remove oligodendrocytes and microglia from the upper layer. Then trypsin digestion was used for subculture. […]
LPS (1 μg·ml-1), LPS (1 μg·ml-1)+curcumin (10 μg·ml-1), LPS (1 μg·ml-1)+5-MTHF-Ca (10 μg·ml-1); experimental group: LPS (1 μg·ml-1)+curcumin (5 μg·ml-1)+5-MTHF-Ca (5 μg·ml-1). After 24 h, the culture supernatant was collected, and the cytokines IL-6, IL-1β and TNF-α were detected by ELISA.

[2] = system: methanol metabolism in rats; details: n=5
Procedure: Experiment 10 Effects of Drinking and 5-Methyltetrahydrofolate on the Formate in the Urine of SD Rats
In order to study the effects of 5-methyltetrahydrofolate and ethanol on methanol metabolism in rats, SPF-grade female SD rats, fasted overnight, were divided into 4 groups: (1) ethanol group, with intragastric administration of ethanol at a dose of 1 g/kg respectively at 1, 2, 3 h, n=7; (2) control group, with intragastric administration of glucose at a dose of 1.6 g/kg (equivalent to alcohol calories) respectively at 1, 2, and 3 h, n=5; (3) 5-methyltetrahydrofolate group, with intragastric administration of 5-methyltetrahydrofolate calcium at a dose of 4 mg/kg at 0 h, followed by glucose at a dose of 1.6 g/kg (equivalent to alcohol calories) respectively at 1, 2, and 3 h, n=5; (4) 5-methyltetrahydrofolate alcohol group, with intragastric administration of 5-methyltetrahydrofolate calcium at a dose of 4 mg/kg at 0 h, followed by ethanol at a dose of 1 g/kg respectively at 1, 2, and 3 h, n=5.
Food grade alcohol was used, with a methanol content of less than 5 mg/L. Urine was collected, from 0 to 24 h, into a test tube containing 0.1 mL of thioethanol and stored at −70° C. The urine samples were divided into three parts, of which gas chromatographic method, fluorescence method and HPLC-DNPH derivative method were used to detect ethanol and methanol contents (see Table 16), formate content, and formaldehyde content (see Table 17) in urine, respectively.
The method for detecting formate is as follows: 0.1 mL of urine was mixed with 0.1 mL of 10 mmol/L NAD+, 0.1 mL of potassium phosphate buffer (pH 7.4, 20 mmol/L) and 50 μL of formate dehydrogenase, then 0.1 mL of diaphorase (4 U/mL), 50 μL of resazurin solution (0.2 mg/ml) and 0.5 ml of phosphate buffer (pH 6.00, 200 mmol/L) were added. The mixture was incubated at 37° C. for 5 min, then immersed in boiling water for 3 min, and then cooled to room temperature. Fluorescence spectrophotometry was used to determine the content of formate in the mixture, with an emission wavelength of 590 nm and an absorption wavelength of 565 nm.
The method for detecting formaldehyde is as follows: 0.1 ml of urine was taken and filtered through filtering membrane, 0.05 ml of 2,4-dinitrophenylhydrazine (DNPH, 0.1 g/L) and 0.25 ml of trifluoroacetic acid were added to it. The sample was vortexed for 30 s, centrifuged, […]. HPLC was used for analysis, with a detection wavelength of 355 nm, column temperature of 35° C., and mobile phase of 65% acetonitrile.

[3] = 5-methyltetrahydrofolate calcium 4 mg/kg ig at 0 h + ethanol 1 g/kg at 1, 2, 3 h
[4] = 5-methyltetrahydrofolate calcium 4 mg/kg ig at 0 h + glucose 1.6 g/kg at 1, 2, 3 h

5-methyltetrahydrofolate calcium
TNF-α [1]: 489.21 ± 10.71 pg/mL

CN1c2c([nH]c(N)nc2=O)NCC1CNc1ccc(C(=O)N[C@@H](CCC(=O)O)C(=O)O)cc1 (stereo partly drawn) [5-methyltetrahydrofolate, N-[4-[[(2-amino-1,4,5,6,7,8-hexahydro-4-oxo-5-methyl-(6S), -(6R), and (6R,S)-pteridyl)methyl)amino)toluoyl-glutamic acid]
Ethanol content in urine, 3 h [2, 3]: 11.6 ± 1.3 mg/L | Formaldehyde content in urine, 3 h [2, 3]: 0.8 ± 0.4 mg/L | Formate content in urine, 3 h [2, 3]: 241 ± 42 mg/L | Methanol content in urine, 3 h [2, 3]: 1.6 ± 0.3 mg/L | Ethanol content in urine, 4 h [2, 3]: 25.2 ± 2.2 mg/L | Formaldehyde content in urine, 4 h [2, 3]: 1.7 ± 0.6 mg/L | Formate content in urine, 4 h [2, 3]: 255 ± 30 mg/L | Methanol content in urine, 4 h [2, 3]: 2.5 ± 0.4 mg/L | Ethanol content in urine, 8 h [2, 3]: 24.1 ± 2.3 mg/L | Formaldehyde content in urine, 8 h [2, 3]: 2.9 ± 1.2 mg/L | Formate content in urine, 8 h [2, 3]: 345 ± 43 mg/L | Methanol content in urine, 8 h [2, 3]: 6.4 ± 1.0 mg/L | Ethanol content in urine, 12 h [2, 3]: 11.8 ± 2.0 mg/L | Formaldehyde content in urine, 12 h [2, 3]: 3.1 ± 1.0 mg/L | Formate content in urine, 12 h [2, 3]: 351 ± 45 mg/L | Methanol content in urine, 12 h [2, 3]: 4.4 ± 0.9 mg/L | Ethanol content in urine, 16 h [2, 3]: 4.3 ± 0.8 mg/L | Formaldehyde content in urine, 16 h [2, 3]: 1.9 ± 0.9 mg/L | Formate content in urine, 16 h [2, 3]: 247 ± 48 mg/L | Methanol content in urine, 16 h [2, 3]: 3.7 ± 0.9 mg/L | Ethanol content in urine, 24 h [2, 3]: 1.7 ± 0.7 mg/L | Formaldehyde content in urine, 24 h [2, 3]: 1.0 ± 0.5 mg/L | Formate content in urine, 24 h [2, 3]: 211 ± 39 mg/L | Methanol content in urine, 24 h [2, 3]: 1.9 ± 0.7 mg/L | Ethanol content in urine, 3 h [2, 4]: 0.6 ± 0.4 mg/L | Formaldehyde content in urine, 3 h [2, 4]: 0.8 ± 0.4 mg/L | Formate content in urine, 3 h [2, 4]: 215 ± 33 mg/L | Methanol content in urine, 3 h [2, 4]: 1.0 ± 0.3 mg/L | Ethanol content in urine, 4 h [2, 4]: 0.8 ± 0.5 mg/L | Formaldehyde content in urine, 4 h [2, 4]: 0.8 ± 0.5 mg/L | Formate content in urine, 4 h [2, 4]: 237 ± 42 mg/L | Methanol content in urine, 4 h [2, 4]: 1.1 ± 0.4 mg/L | Ethanol content in urine, 8 h [2, 4]: 1.5 ± 0.4 mg/L | Formaldehyde content in urine, 8 h [2, 4]: 0.7 ± 0.4 mg/L | Formate content in urine, 8 h [2, 4]: 198 ± 36 mg/L | Methanol content in urine, 8 h [2, 4]: 1.2 ± 0.4 mg/L | Ethanol content in urine, 12 h [2, 4]: 1.5 ± 0.3 mg/L | Formaldehyde content in urine, 12 h [2, 4]: 0.8 ± 0.3 mg/L | Formate content in urine, 12 h [2, 4]: 187 ± 32 mg/L | Methanol content in urine, 12 h [2, 4]: 1.1 ± 0.4 mg/L | Ethanol content in urine, 16 h [2, 4]: 1.7 ± 0.5 mg/L | Formaldehyde content in urine, 16 h [2, 4]: 0.8 ± 0.5 mg/L | Formate content in urine, 16 h [2, 4]: 190 ± 41 mg/L | Methanol content in urine, 16 h [2, 4]: 1.3 ± 0.5 mg/L | Ethanol content in urine, 24 h [2, 4]: 1.6 ± 0.4 mg/L | Formaldehyde content in urine, 24 h [2, 4]: 0.8 ± 0.4 mg/L | Formate content in urine, 24 h [2, 4]: 188 ± 36 mg/L | Methanol content in urine, 24 h [2, 4]: 1.1 ± 0.3 mg/L
